In US8329675B2, “Inhibitors of fatty acid amide hydrolase” (Infinity Pharmaceuticals, Inc., priority 2006, dated 2012) one finds Ki data, which are given here for 76 compounds.

One experiment has as its target T1, human FAAH (Homo sapiens, UniProt O00519).
T1 construct: host or cells: COS-7 cells, transient transfection; 13,000 g membrane fraction solubilised in 1% Triton X-100
T1 sequence (O00519 1-579): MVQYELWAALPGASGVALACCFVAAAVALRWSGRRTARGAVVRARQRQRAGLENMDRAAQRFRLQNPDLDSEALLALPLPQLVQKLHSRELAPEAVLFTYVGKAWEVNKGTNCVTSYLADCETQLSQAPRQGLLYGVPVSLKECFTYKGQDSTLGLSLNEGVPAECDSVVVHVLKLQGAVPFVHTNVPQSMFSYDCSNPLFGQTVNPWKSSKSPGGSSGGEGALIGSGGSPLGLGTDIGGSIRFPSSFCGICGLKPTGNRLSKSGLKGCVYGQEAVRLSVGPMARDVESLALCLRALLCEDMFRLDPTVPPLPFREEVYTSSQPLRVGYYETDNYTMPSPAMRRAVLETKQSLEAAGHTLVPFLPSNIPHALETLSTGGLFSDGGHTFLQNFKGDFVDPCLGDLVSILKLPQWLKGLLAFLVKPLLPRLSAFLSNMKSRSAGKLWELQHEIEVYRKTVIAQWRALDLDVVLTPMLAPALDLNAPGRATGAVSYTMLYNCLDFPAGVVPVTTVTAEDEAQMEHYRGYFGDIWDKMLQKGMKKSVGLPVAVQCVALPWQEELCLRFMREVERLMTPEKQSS
Kind of experiment: Human FAAH biochemical inhibition assay (AMC arachidonoyl amide fluorescence).
Settings: not given
The method, then:
The resulting solution is added into one dish of 30-40% confluent COS-7 cells in a drop-wise manner. The COS-7 cell dish is subsequently incubated for 48 hours. The cells are then harvested.
Harvest procedure: Media was aspirated from the dishes and the cells rinsed with 10 mL PBS. The PBS was removed and 3 mLs of PBS added to the dish. The dish was scraped to resuspend the cells, and the subsequent cell suspension collected into a 15 ml conical tube. The cells were pelleted by centrifugation at 1200 rpm for 5 minutes in a bench top centrifuge. PBS was removed and the cell pellet snap frozen in liquid nitrogen, store at −80 C.
The pellets were dounce homogenized and then sonicated to produce cell extract. The cell extract was subsequently centrifuged at 1000 g to remove cellular debris. The pellet was discarded and the supernatant centrifuged at 13,000 g for 20 minutes. The pellet contained membrane bound FAAH. The supernatant was discarded and the pellet resolubilized.
(2) Re-solubilization: The fraction of interest, (13,000 g, membrane fraction) was re-suspended in re-suspension buffer (20 mM Hepes pH 7.8, 10% v/v Glycerol, 1 mM EDTA, 1% Triton X-100) (2.3 mL re-suspension and the sample incubated on ice for 1 hour and then centrifuged to at 13,000 g remove any particulate matter. The supernatant containing solubilized human FAAH was aliquoted and snap frozen in liquid nitrogen and stored at −80° C. until use.
FAAH reaction buffer: 50 mM Hepes (pH 7.5), 1 mM EDTA, 0.2% Triton X-100.
Human FAAH assay; Experimental Protocol: A 0.1 mg/mL Human FAAH solution is made up in FAAH reaction buffer, and 24 ul pipetted into a 384 well plate. To this is added 1 uL of a 3 fold serially diluted inhibitor from a DMSO stock solution. The FAAH solution and inhibitor are incubated for 30 minutes at room temperature. The FAAH reaction is initiated by the addition of 25 uL of 40 uM AMC Arachidonoyl Amide in FAAH reaction buffer, yielding a final reaction human FAAH preparation concentration of 0.05 mg/ml and AMC-Arachidonoyl substrate concentration of 20 uM, reaction volume 50 uL. The reaction is allowed to proceed for 4 hours at room temperature. […] The microtiter plate in read in the envision plate reader.
In the case of `OB(O)c1ccc(-c2ccccc2)cc1` [Compound I-187], the Ki (in general, a measure of affinity in units of concentration, obtained from inhibition or displacement) was in the range of 10 to 100 nM.

Still in this experiment, the particulars now being: Table 1, human FAAH (no asterisk); read-out: Activity (Ki).
Consider `OB(O)c1cccc(-c2ccccc2)c1` [Compound I-186], for which the Ki is 10 to 1000 nM.
For the compound `OB(O)c1ccc(-c2ccccc2)c(F)c1` [Compound I-194], the Ki was under 10 nM.
For `OB(O)c1ccc(-c2ccccc2)s1` [Compound I-196], the inhibition constant (Ki) is 10 to 100 nM.
On to `OB(O)c1csc2ccccc12` [Compound I-197], for which the Ki was 10 to 100 nM.
On to `OB(O)c1ccc(-c2ccc(B(O)O)cc2)cc1` [Compound I-198], for which the Ki was in the range of 10 to 100 nM.
For `O=C(c1ccccc1)c1ccc(B(O)O)cc1` [Compound I-202], the Ki is under 10 nM.
Same read-out and setting: in the case of `OB(O)c1ccc(OC(F)(F)F)cc1` [Compound I-204] it was 10 to 100 nM.

Still in this experiment, the particulars now being: Table 2, human FAAH (no asterisk); read-out: Activity (Ki).
Consider `OB(O)c1ccc(OCc2cn(C3CCCC3)nn2)cc1F` [II-1], for which the Ki is 10 to 100 nM.
The same measure, in the same setting: in the case of `OB(O)c1ccc(-c2ccc(F)c(F)c2)cc1F` [II-2] it was under 10 nM.
`Cc1ccc(-c2ccc(B(O)O)c(F)c2)cc1F` [II-3]: the Ki was under 10 nM.
As for `CN(C)c1cccc(-c2ccc(B(O)O)c(F)c2)c1` [II-4], the Ki was under 10 nM.
As to `O=C1C[N+]2(Cc3ccccc3)CC(=O)O[B-]2(c2ccc(-c3cccc(F)c3)cc2F)O1` (stereo not shown) [II-5], the Ki was under 10 nM.
In the case of `OB(O)c1ccc(OCCc2ccccn2)cc1F` [II-6], the Ki is under 10 nM.
With `OB(O)c1ccc(-c2nnc(-c3ccco3)o2)cc1` [II-7], the Ki was under 10 nM.
On the same count and under the same terms, with `OB(O)c1ccc(OCCc2ccccc2)cc1F` [II-8] the figure was under 10 nM; with `O=C(CCc1ccccc1)c1ccc(B(O)O)cc1` [II-9], under 10 nM.
The same measure, in the same setting: in the case of `OB(O)c1ccc(-c2ccc(-c3ccccc3)c(F)c2)cc1F` [II-10] it was under 10 nM; in that of `OB(O)c1ccc(-c2cccc(F)c2)cc1F` [II-11], under 10 nM; in that of `OB(O)c1ccc(Oc2cccc(F)c2)cc1F` [II-12], under 10 nM.
Turning to `OB(O)c1ccc(-c2cccnc2)cc1F` [II-13], the Ki lay in the range of 10 to 100 nM.
For the compound `O=C1c2ccccc2C(=O)N1Cc1ccc(B(O)O)cc1` [II-14], the Ki lay in the range of 10 to 100 nM.
For `O=C(c1ccccc1)c1cc2cc(B(O)O)ccc2o1` [II-15], the Ki was in the range of 10 to 100 nM.
Turning to `OB(O)c1ccc(-c2cccc3ccccc23)cc1F` [II-16], the Ki is 10 to 100 nM.
Same read-out and setting: in the case of `OB(O)c1ccc(OCCc2cccc(OCCCc3ccccc3)c2)cc1F` [II-17] it was under 10 nM.
For the compound `CCCCOc1cccc(CCOc2ccc(B(O)O)c(F)c2)c1` [II-18], the Ki was under 10 nM.
Still for that read-out and setting: in the case of `O=C(CCCCc1ccccc1)Nc1cccc(CCOc2ccc(B(O)O)c(F)c2)c1` [II-19] it was under 10 nM; in that of `OB(O)c1ccc(-c2cccc(F)c2)c(Cl)c1` [II-20], 10 to 100 nM.
With `CCCCCC(=O)Nc1cccc(CCOc2ccc(B(O)O)c(F)c2)c1` [II-21], the Ki was under 10 nM.
As for `CN(C)CCCC(=O)Nc1cccc(CCOc2ccc(B(O)O)c(F)c2)c1` [II-22], the Ki was in the range of 10 to 1000 nM.
As to `OB(O)c1csc2c(Cl)cccc12` [II-23], the Ki is 10 to 100 nM.
Take `OB(O)c1csc2cc(Cl)ccc12` [II-24]: the Ki lay within 10 to 100 nM.
The same measure, in the same setting: with `O=C1c2cc(B(O)O)ccc2CC1Cc1ccccc1` (stereo not shown) [II-25] the figure was under 10 nM.
For `OB(O)c1ccc(-c2cccc(-c3ccccc3)c2)cc1F` [II-26], the Ki is under 10 nM.
In the case of `O=C(CCc1ccc(B(O)O)c(F)c1)c1ccccc1` [II-27], the Ki was under 10 nM.
As to `OB(O)c1ccc(COCc2ccccc2)cc1F` [II-28], the Ki was under 10 nM.
As for `O=C1c2ccc(B(O)O)cc2CC1Cc1ccccc1` (stereo not shown) [II-29], the Ki is under 10 nM.
On to `OB(O)c1ccc2c(c1)Cc1ccccc1-2` [II-30], for which the inhibition constant Ki was 10 to 100 nM.
Take `OB(O)c1ccc2sc3ccccc3c2c1` [II-31]: the Ki fell in the range of 10 to 1000 nM.
Turning to `Cc1ccc(C)n1-c1ccc(B(O)O)cc1` [II-32], the Ki is over 1000 nM.
For the compound `Cc1cc(B(O)O)ccc1-c1ccccc1` [II-33], the Ki is 10 to 100 nM.
Take `Nc1ccc(CCOc2ccc(B(O)O)c(F)c2)cc1` [II-35]: the Ki is under 10 nM.
Regarding `OB(O)c1ccc(-c2nc3ccccc3s2)cc1` [II-36], the Ki was over 1000 nM.
For the compound `Nc1cccc(CCOc2ccc(B(O)O)c(F)c2)c1` [II-37], the Ki was under 10 nM.
Same read-out and setting: with `COc1cccc2c(C(O)O)coc12` [II-38] the figure was over 1000 nM; with `CC(C)(C)OC(=O)Nc1ccc(CCOc2ccc(B(O)O)c(F)c2)cc1` [II-39], 10 to 100 nM; with `O=[N+]([O-])c1cccc(CCOc2ccc(B(O)O)c(F)c2)c1` [II-40], over 1000 nM.
Still for that read-out and setting: in the case of `Cn1c(-c2ccc(B(O)O)cc2)nc2ccccc21` [II-41] it was over 1000 nM; in that of `Cc1nc2cc(B(O)O)ccc2s1` [II-42], 10 to 1000 nM; in that of `OB(O)c1ccc(COCc2ccccc2)c(Cl)c1` [II-43], under 10 nM.
Consider `O=C(CCc1ccccc1)c1ccc(B(O)O)c(F)c1` [II-44], for which the Ki was under 10 nM.
Take `Cc1ncc(-c2ccc(B(O)O)cc2)s1` [II-45]: the Ki was over 1000 nM.
The same measure, in the same setting: in the case of `OB(O)c1ccc(CCCc2ccccc2)cc1F` [II-46] it was under 10 nM; in that of `OB(O)c1ccc2occc2c1` [II-47], 10 to 1000 nM; in that of `OB(O)c1ccc(COCc2cc(Cl)cc(Cl)c2)cc1F` [II-48], under 10 nM.
On to `OB(O)c1ccc2sccc2c1` [II-49], for which the Ki was 10 to 1000 nM.
`CCOc1ccc(CCOc2ccc(B(O)O)c(F)c2)cc1` [II-50]: the Ki was under 10 nM.
Still for that read-out and setting: with `COc1cccc(CCOc2ccc(B(O)O)c(F)c2)c1` [II-51] the figure was under 10 nM; with `OB(O)c1ccc(OCCc2ccc(C(F)(F)F)cc2)cc1F` [II-52], under 10 nM; with `OB(O)c1ccc(OCCc2cccc(C(F)(F)F)c2)cc1F` [II-53], under 10 nM.
As to `c1ccc(CCCB(Oc2cccc3cccnc23)c2ccc(Oc3ccccc3)cc2)cc1` [II-54], the Ki is under 10 nM.
Turning to `CCCCB(Oc1cccc2cccnc12)c1ccc(Oc2ccccc2)cc1` [II-55], the Ki is under 10 nM.
Consider `OB(O)c1ccc(OCCc2ccccc2)c(Cl)c1` [II-57], for which the Ki was under 10 nM.
On to `Cc1sc2ccccc2c1B(O)O` [II-58], for which the Ki was over 1000 nM.
Regarding `OB(O)c1ccc(-c2ccco2)cc1` [II-59], the Ki lay in the range of 10 to 100 nM.
As for `Cc1ccc2ccc(B(O)O)c(F)c2n1` [II-60], the Ki is over 1000 nM.
The same measure, in the same setting: with `OB(O)c1ccc(OCCc2cccc(Cl)c2)cc1F` [II-61] the figure was under 10 nM; with `OB(O)c1ccc(OCCc2ccc(Cl)c(Cl)c2)cc1F` [II-62], under 10 nM; with `OB(O)c1ccc(C(OCc2ccccc2)c2ccccc2)cc1` (stereo not shown) [II-63], 10 to 1000 nM.
In the case of `OB(O)c1ccc(-c2nc3ccccc3[nH]2)cc1` [II-64], the inhibition constant (Ki) is over 1000 nM.
With `Cc1ccc2scc(B(O)O)c2c1` [II-65], the inhibitory constant (Ki) fell in the range of 10 to 1000 nM.
On to `OB(c1ccccc1)c1ccc(Oc2ccccc2)cc1` [II-66], for which the Ki was in the range of 10 to 100 nM.
On to `OB(O)c1ccc2scc(COc3ccccc3)c2c1` [II-67], for which the Ki was over 1000 nM.
Take `OB(O)c1ccc(CCCc2ccccc2)cc1` [II-68]: the Ki was under 10 nM.
Consider `OB(O)c1ccc(OCCN2CCCCC2)cc1F` [II-69], for which the Ki lay in the range of 10 to 1000 nM.
In the case of `OB(O)c1ccc(COCc2ccc(C(F)(F)F)cc2)cc1F` [II-71], the Ki is under 10 nM.
